Experiment: Henry solubility constant Hcp at 298.15 K (mol/(m3 Pa))
Details: reference: Dewulf et al. (1995)

| SMILES | Henry solubility constant Hcp |
| --- | --- |
| Cc1ccccc1 [methylbenzene] | 0.0018 |
| Cc1ccc(C)cc1 [1,4-dimethylbenzene] | 0.0017 |
| ClC(Cl)=C(Cl)Cl [tetrachloroethene] | 0.00069 |
| c1ccccc1 [benzene] | 0.0021 |
| CCc1ccccc1 [ethylbenzene] | 0.0015 |
| ClC(Cl)(Cl)Cl [tetrachloromethane] | 0.00038 |
| CC(Cl)(Cl)Cl [1,1,1-trichloroethane] | 0.00067 |
| ClC=C(Cl)Cl [trichloroethene] | 0.0012 |
| Cc1cccc(C)c1 [1,3-dimethylbenzene] | 0.0016 |
| Cc1ccccc1C [1,2-dimethylbenzene] | 0.0024 |
